The source of these data is patent publication US5178877A, “Encapsulated renin inhibitor composition” (priority 1991, dated 1993).

Structures are written as SMILES.

Data set [1] is described as follows: Oral bioavailability studies in fasted dogs. To be noted: dog, in vivo. The procedure:
The following compositions comprising compound I were prepared and the bioavailability of each composition was determined in fasted dogs. Dogs (beagle dogs, mixed sexes, weighing about 10 kg) were fasted for at least 12 hours before dosing. Food was returned after the last blood sample was collected (24 hours). Water was available at all times. A dose equivalent to 50 or 100 milligrams of compound I was administered by mouth to each dog, followed with either 20 or 50 ml of water, respectively, through a feeding tube. […] Blood samples of 3 ml volume were anti-coagulated with EDTA. The plasma was separated by centrifugation and frozen until analyzed. Blood plasma concentrations of compound I were determined by HPLC. Bioavailability was calculated as follows: % Bioavailability=[(AUC)oral×D/(AUC)intravenous]×100. (AUC)oral and (AUC)intravenous are the areas under the curve for the plasma concentration-time profiles following oral and intravenous administration, respectively. D is a correlation factor for the difference between intravenous administration (3 mg/kg) and oral administration (about 10 mg/kg).

In data set [2] the test system is salt depleted dogs. The experiment in a line: Blood pressure lowering in salt depleted dogs. The data set is classed as in vivo, dog. To be noted: after oral or intravenous administration.

Take `CC(C)C[C@H](O)[C@H](O)[C@H](CC1CCCCC1)NC(=O)[C@H](Cc1cscn1)NC(=O)[C@H](Cc1ccccc1)CS(=O)(=O)N1CCN(C)CC1` [compound I, (2S)-2-Benzyl-3-(1-methyl-piperazin-4-ylsulfonyl)propionyl-(L)-(4-Thiazolyl)Ala Amide of (2S, 3R, 4S)-2-Amino-1-cyclohexyl-3,4-dihydroxy-6-methylheptane]: the “times more bioavailable as soft elastic gelatin encapsulated solution compared to standard solid capsule or tablet compositions” value in data set [1] is reported as 2.1-5.2 times. In data set [2], the blood pressure entry is “reduces blood pressure”.
